Ends that are not written are not given here.
Experiments:
[1] = test system: blood monocytes from patients with cirrhosis; assay: LC3+ pHrodo+ phagosome (LAPosome) number in blood monocytes from patients with cirrhosis; assay type: cell-based, human; details: 10 mM 3-MA, 30 μM N8 peptide, data not shown
Protocol: Human blood monocytes. Human monocytes were isolated from freshly isolated PBMC, using EasySep human monocyte enrichment kit (STEMCELL Technologies, 19058), and CD14+CD16+ monocytes were isolated by immunomagnetic negative selection according to the manufacturer's instructions. Cell treatment. Human monocytes, THP1-XBlueTM-CD14 (Invivogen, Catalog #[…] THP1-FcγRIIA+-CD14+(kindly provided by Novimmune) monocytes were used. When indicated cells were exposed to either 30 μM chloroquine diphosphate (Sigma, C6628), 10 mM 3-Methyladenine (3-MA, Sigma, M9281-100 mg), 10 mM Diphenyleneiodonium chloride (DPI, Sigma, D2926-10 mg), or 10 mg/ml IVIg (Privigen, 100 mg/ml) for 4 hrs at 37° C., as indicated. […] For quantification, images were acquired by confocal microscopy (Confocal Zeiss LSM 780) equipped with a 63× oil immersion objective. For each condition, 10 to 15 fields were randomly selected, and the number of LC3+ signal localized around pHrodo+ phagosomes (LC3+ pHrodo+) was quantified in at least 40 to 60 cells. Unless otherwise indicated, results are expressed as number of LC3+ phagosomes/individual normalized to 100 cells. […]

[2] = test system: blood monocytes from healthy donors and cirrhotic patients; assay: RT-PCR analysis of inflammatory gene expression in blood monocytes; assay type: cell-based, human; details: cirrhotic monocytes vs control-treated cells from healthy donors; 10 mM 3-MA, 10 μM DPI, 30 μM N8; FIG. 1C
Protocol: FIG. 1: Inhibition of LAP components enhances the inflammatory signature in blood monocytes from patients with cirrhosis. (A). Inverse correlation between circulating C-Reactive Protein (CRP) levels and the number of LC3+ pHrodo+ phagosomes containing E. Coli bioparticles in blood monocytes from patients with cirrhosis (n=14). *p=0.005, r=-0.7 for LC3+ pHrodo+ phagosomes number vs CRP. (B). PBMC were incubated for 4 hrs at 37° C. with either vehicle, 10 mM 3-MA, 10 μM DPI, 30 μM N8 or control mutant […] peptides Percentage of IL8+ production in CD14+ cells from patients (n=8) and healthy donors (n=6) PBMC. (C). RT-PCR analysis of inflammatory gene expression in blood monocytes from healthy donors (n=6-8) and cirrhotic patients (n=6-11). Results are expressed as fold over respective control. *p<0.05, **p<0.001 for healthy vs cirrhotic. Statistical analysis was performed using Spearman correlation test (A), Mann-Whitney (b, for comparison between healthy and cirrhosis) and Wilcoxon matched-pairs signed rank test (B, for treatment). Human blood monocytes. Human monocytes were isolated from freshly isolated PBMC, using EasySep human monocyte enrichment kit (STEMCELL Technologies, 19058), and CD14+CD16+ monocytes were isolated by immunomagnetic negative selection according to the manufacturer's instructions. Cell treatment. […]

Compound	LC3+ phagosome number [1]	gene expression of cytokines and chemokines [2]
Cn1cnc(N)c2ncnc1-2 [3-MA, 3-Methyladenine]	significant reduction	significantly higher
N8 peptide: Tat-conjugated peptide of eight N-terminal amino acids (3-10) of p22phox that blocks the Rubicon-p22phox interaction (QIEWAMWA; also: Tat cell-penetrating peptide conjugate, attachment not given here; UniProt P13498 3-10, looked up, fragment)	significant reduction	significantly higher

Reference: patent US20220081481A1, “USE OF AGENTS CAPABLE OF INDUCING LC3-ASSOCIATED PHAGOCYTOSIS FOR TREATING SUSTAINED INFLAMMATION IN PATIENTS SUFFERING FROM CHRONIC LIVER DISEASE” (INSERM (INSTITUT NATIONAL DE LA SANTÉ ET DE LA RECHERCHE …, priority 2019, published 2022)
